From patent US8846947B2, “Benzimidazoles and related analogs as sirtuin modulators” (GlaxoSmithKline LLC, priority 2008, dated 2014) come the findings set out here.

For the assay, the target named is T1, SIRT1 (Homo sapiens, UniProt Q96EB6).
T1 sequence (Q96EB6 1-747): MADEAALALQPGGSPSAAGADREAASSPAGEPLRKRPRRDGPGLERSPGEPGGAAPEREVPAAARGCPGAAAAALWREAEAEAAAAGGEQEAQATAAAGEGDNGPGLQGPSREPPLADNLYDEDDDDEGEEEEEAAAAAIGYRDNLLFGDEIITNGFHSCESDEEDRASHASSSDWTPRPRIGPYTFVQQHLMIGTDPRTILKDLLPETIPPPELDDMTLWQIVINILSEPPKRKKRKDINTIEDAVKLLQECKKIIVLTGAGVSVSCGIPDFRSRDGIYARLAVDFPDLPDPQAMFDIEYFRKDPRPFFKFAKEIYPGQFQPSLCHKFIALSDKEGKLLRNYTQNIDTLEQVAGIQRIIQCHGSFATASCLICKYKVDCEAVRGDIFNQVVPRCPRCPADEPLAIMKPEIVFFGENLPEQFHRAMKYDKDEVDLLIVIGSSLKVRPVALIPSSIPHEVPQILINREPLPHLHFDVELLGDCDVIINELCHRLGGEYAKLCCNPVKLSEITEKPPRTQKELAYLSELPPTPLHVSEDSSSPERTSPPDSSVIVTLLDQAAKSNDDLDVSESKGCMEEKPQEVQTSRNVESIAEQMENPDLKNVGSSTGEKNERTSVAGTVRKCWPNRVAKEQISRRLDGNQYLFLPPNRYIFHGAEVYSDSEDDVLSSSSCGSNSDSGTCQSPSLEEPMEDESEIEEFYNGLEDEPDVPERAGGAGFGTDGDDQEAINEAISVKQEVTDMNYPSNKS
The assay can be described thus: Mass spectrometry based SIRT1 deacetylase activation assay (acetylated p53-derived peptide substrate). It is filed as biochemical. The text has this: A mass spectrometry based assay was used to identify modulators of SIRT1 activity. The mass spectrometry based assay utilizes a peptide having 20 amino acid residues as follows: Ac-EE-K(biotin)-GQSTSSHSK(Ac)NleSTEG-K(5TMR)-EE-NH2 (SEQ ID NO: 1) wherein K(Ac) is an acetylated lysine residue and Nle is a norleucine. The peptide is labeled with the fluorophore 5TMR (excitation 540 nm/emission 580 nm) at the C-terminus. The sequence of the peptide substrate is based on p53 with several modifications. In addition, the methionine residue naturally present in the sequence was replaced with the norleucine because the methionine may be susceptible to oxidation during synthesis and purification.
The mass spectrometry assay is conducted as follows: 0.5 μM peptide substrate and 120 μM βNAD^+ is incubated with 10 nM SIRT1 for 25 minutes at 25° C. in a reaction buffer (50 mM Tris-acetate pH 8, 137 mM NaCl, 2.7 mM KCl, 1 mM MgCl2, 5 mM DTT, 0.05% BSA). Test compounds may be added to the reaction as described above. […] After the 25 minute incubation with SIRT1, 10 μL of 10% formic acid is added to stop the reaction. Reactions are sealed and frozen for later mass spec analysis. Determination of the mass of the substrate peptide allows for precise determination of the degree of acetylation (i.e. starting material) as compared to deacetylated peptide (product).
A control for inhibition of sirtuin activity is conducted by adding 1 μL of 500 mM nicotinamide as a negative control at the start of the reaction (e.g., permits determination of maximum sirtuin inhibition). A control for activation of sirtuin activity is conducted using 10 nM of sirtuin protein, with 1 μL of DMSO in place of compound, to determine the amount of deacetylation of the substrate at a given timepoint within the linear range of the assay. This timepoint is the same as that used for test compounds and, within the linear range, the endpoint represents a change in velocity.
For the above assay, SIRT1 protein was expressed and purified as follows. […] The protein was expressed by induction with 1 mM IPTG as an N-terminal His-tag fusion protein at 18° C. overnight and harvested at 30,000×g. Cells were lysed with lysozyme in lysis buffer (50 mM Tris-HCl, 2 mM Tris[2-carboxyethyl]phosphine (TCEP), 10 μM ZnCl2, 200 mM NaCl) and further treated with sonication for 10 min for complete lysis. The protein was purified over a Ni-NTA column (Amersham) and fractions containing pure protein were pooled, concentrated and run over a sizing column (Sephadex S200 26/60 global). The peak containing soluble protein was collected and run on an Ion-exchange column (MonoQ). Gradient elution (200 mM-500 mM NaCl) yielded pure protein. This protein was concentrated and dialyzed against dialysis buffer (20 mM Tris-HCl, 2 mM TCEP) overnight. The protein was aliquoted and frozen at −80° C. until further use.
Sirtuin modulating compounds that activated SIRT1 were identified using the assay described above and are shown below in Table 1. The EC1.5 values for the activating compounds are represented by A (EC1.5<1.0 uM), B (EC1.5 1-25 uM), C (EC1.5 >25 uM). The percent maximum fold activation is represented by A (Fold activation >200%) or B (Fold Activation <200%).

[1] abbreviates: 0.5 μM peptide substrate, 120 μM βNAD+, 10 nM SIRT1, 25 minutes at 25° C.
Setting [2] is: 0.5 μM peptide substrate, 120 μM βNAD+, 10 nM SIRT1, 25 min at 25° C.
The mark [3] stands for this setting: 0.5 μM peptide substrate, 120 μM βNAD+, 10 nM SIRT1, 25 min at 25° C., read-out: EC1.5.

Like-named read-outs stand apart in the source and are kept apart here.

As for `O=C(Nc1cc[n+]([O-])cc1)c1cccc2[nH]c(-c3ccccc3C(F)(F)F)nc12` [Compound 337], the EC1.5 result is “A (EC1.5<1.0 uM)” and the “Fold Act. (percent maximum fold activation)” value is given as “A (Fold activation >200%)”.
Take `O=C(Nc1ccccn1)c1cc(F)cc2nc(-c3ccc(F)cc3C(F)F)[nH]c12` [Compound 826]: under setting [1], the EC1.5 result is listed as “A (EC1.5<1.0 uM)” and the “Fold Act. (percent maximum fold activation)” value is listed as “A (Fold activation >200%)”.
On the same counts, the results for `O=C(Nc1cccnn1)c1cc(N2CCOCC2)cc2[nH]c(-c3ccc(F)cc3C(F)F)nc12` [Compound 752] are “A (EC1.5<1.0 uM)” and “A (Fold activation >200%)”.
On the same counts, the results for `O=C(Nc1ccccc1OCC(O)CO)c1cccc2[nH]c(-c3ccc(Cl)cc3C(F)(F)F)nc12` (stereo not shown) [Compound 726] are “B (EC1.5 1-25 uM)” and “A (Fold activation >200%)”.
On to `Cc1nc(N2CCOCC2)sc1-c1nc2c(C(=O)Nc3ccccn3)cccc2[nH]1` [Compound 412], for which the “Fold Act. (percent maximum fold activation)” value under setting [2] is reported as “A (Fold activation >200%)”. For the same compound, the EC1.5 under setting [3] is < 1000 nM.
The matching figures for `O=C(Nc1ccccn1)c1cccc2[nH]c(-c3ccc(N4CCOCC4)cc3C(F)(F)F)nc12` [Compound 415]: “A (Fold activation >200%)” and < 1000 nM.
On to `O=C(Nc1cccc(OC[C@H](O)CO)c1)c1cncc2[nH]c(-c3ccc(Cl)cc3C(F)F)nc12` [Compound 715], for which, under setting [1], the EC1.5 result is given as “A (EC1.5<1.0 uM)” and the “Fold Act. (percent maximum fold activation)” value is given as “A (Fold activation >200%)”.
With `O=C(Nc1nccs1)c1cccc2[nH]c(-c3ccco3)nc12` [Compound 249], the EC1.5 entry is on record as “B (EC1.5 1-25 uM)” and the “Fold Act. (percent maximum fold activation)” value is on record as “A (Fold activation >200%)”.
Regarding `Cc1cnc(NC(=O)c2cccc3[nH]c(-c4ccc(OCC(O)CO)cc4C(F)F)nc23)s1` (stereo not shown) [Compound 557], under setting [2], the “Fold Act. (percent maximum fold activation)” value is “A (Fold activation >200%)”. Under setting [3], the EC1.5 is < 1000 nM.
Consider `O=C(Nc1cccnc1)c1cccc2[nH]c(-c3cccc(CN4CCOCC4)c3)nc12` [Compound 350], for which the EC1.5 result was “B (EC1.5 1-25 uM)” and the “Fold Act. (percent maximum fold activation)” value is listed as “A (Fold activation >200%)”.
In the case of `Cc1ccc(-c2nc3c(C(=O)Nc4nc(CN5CCOCC5)cs4)cccc3[nH]2)cn1` [Compound 843], under setting [1], the EC1.5 entry is recorded as “A (EC1.5<1.0 uM)” and the “Fold Act. (percent maximum fold activation)” value is “A (Fold activation >200%)”.
Take `O=C(NC1CCNCC1)c1cccc2[nH]c(-c3cc(F)ccc3C(F)(F)F)nc12` [Compound 438]: the “Fold Act. (percent maximum fold activation)” value under setting [2] is “B (Fold Activation <200%)”. Also, under setting [3], the EC1.5 was > 25000 nM.
In the case of `Cc1cc(NC(=O)c2cccc3[nH]c(-c4cccc(N5CCOCC5)c4)nc23)n(C)n1` [Compound 399], under setting [2], the “Fold Act. (percent maximum fold activation)” value is “A (Fold activation >200%)”. Further, under setting [3], the EC1.5 was < 1000 nM.
On to `O=C(Nc1nccs1)c1cc(N2CCOCC2)cc2[nH]c(-c3ccc(Cl)cc3C(F)(F)F)nc12` [Compound 640], for which, under setting [1], the EC1.5 result is “A (EC1.5<1.0 uM)” and the “Fold Act. (percent maximum fold activation)” value is on record as “A (Fold activation >200%)”.
On to `O=C(Nc1nccs1)c1cccc2[nH]c(-c3ccncc3Cl)nc12` [Compound 294], for which the EC1.5 entry was “B (EC1.5 1-25 uM)” and the “Fold Act. (percent maximum fold activation)” value is recorded as “A (Fold activation >200%)”.
Regarding `Cc1cc(NC(=O)c2cccc3[nH]c(-c4ccc(F)cc4C(F)(F)F)nc23)no1` [Compound 464], under setting [2], the “Fold Act. (percent maximum fold activation)” value was “A (Fold activation >200%)”. The EC1.5 under setting [3] was < 1000 nM.
On to `O=C(Nc1ccc(CN2CCOCC2)nc1)c1cccc2[nH]c(-c3ccc(Cl)cc3C(F)(F)F)nc12` [Compound 684], for which, under setting [1], the EC1.5 result is “A (EC1.5<1.0 uM)” and the “Fold Act. (percent maximum fold activation)” value is given as “A (Fold activation >200%)”.
As to `O=C(Nc1cnccn1)c1cccc2[nH]c(-c3ccccc3OCCN3CCOCC3)nc12` [Compound 489], the “Fold Act. (percent maximum fold activation)” value under setting [2] was “B (Fold Activation <200%)”. Besides, the EC1.5 under setting [3] is 1000 to 25000 nM.
The matching figures for `O=C(Nc1ccc(OCC(O)CO)cc1)c1cccc2[nH]c(-c3ccc(Cl)cc3C(F)(F)F)nc12` (stereo not shown) [Compound 493]: “A (Fold activation >200%)” and < 1000 nM.
With `O=C(Nc1ccccn1)c1cccc2[nH]c(-c3cccc(-c4nnn[nH]4)c3)nc12` [Compound 361], the EC1.5 result is “A (EC1.5<1.0 uM)” and the “Fold Act. (percent maximum fold activation)” value is reported as “A (Fold activation >200%)”.
Take `O=C(Nc1nccs1)c1cccc2[nH]c(-c3cccc(OC4CCNC4)c3)nc12` (stereo not shown) [Compound 462]: the “Fold Act. (percent maximum fold activation)” value under setting [2] is “A (Fold activation >200%)”. Also, the EC1.5 under setting [3] is < 1000 nM.
Consider `O=C(Nc1nccs1)c1cccc2[nH]c(-c3ccccc3OCCN3CCOCC3)nc12` [Compound 340], for which the EC1.5 result is “A (EC1.5<1.0 uM)” and the “Fold Act. (percent maximum fold activation)” value is “A (Fold activation >200%)”.
On the same counts, the results for `O=C(Nc1nccs1)c1cccc2[nH]c(-c3ccccn3)nc12` [Compound 215] are “B (EC1.5 1-25 uM)” and “A (Fold activation >200%)”.
As to `O=C(NC1CCOC1=O)c1cccc2[nH]c(-c3cccc(C(F)(F)F)c3)nc12` (stereo not shown) [Compound 273], the EC1.5 entry was “B (EC1.5 1-25 uM)” and the “Fold Act. (percent maximum fold activation)” value was “A (Fold activation >200%)”.
The matching figures for `Cn1nc(C(F)(F)F)c(-c2nc3c(C(=O)Nc4ccccn4)cccc3[nH]2)c1Cl` [Compound 327]: “A (EC1.5<1.0 uM)” and “A (Fold activation >200%)”.
As to `O=C(Nc1ccccc1)c1cccc2[nH]c(-c3ccc(F)cc3C(F)(F)F)nc12` [Compound 755], under setting [1], the EC1.5 result is given as “A (EC1.5<1.0 uM)” and the “Fold Act. (percent maximum fold activation)” value is “A (Fold activation >200%)”.
On the same counts, the results for `Cc1cnc(NC(=O)c2cc(F)cc3nc(-c4ccc(F)cc4C(F)F)[nH]c23)s1` [Compound 825] are “A (EC1.5<1.0 uM)” and “A (Fold activation >200%)”.
Take `O=C(Nc1cccc2[nH]c(-c3cccc(C(F)(F)F)c3)nc12)c1ccccn1` [Compound 333]: the EC1.5 entry is recorded as “B (EC1.5 1-25 uM)” and the “Fold Act. (percent maximum fold activation)” value was “A (Fold activation >200%)”.
On the same counts, the results for `O=C(Nc1ccncc1)c1cccc2[nH]c(-c3ccccc3C(F)(F)F)nc12` [Compound 262] are “A (EC1.5<1.0 uM)” and “A (Fold activation >200%)”.
